Test system: MCF-7 cells
Test: Growth inhibition of siRNA-transfected MCF-7 cells, SYBR Green I DNA content
Type: cell-based, human
Conditions: 10 nM siRNA; standardized against control siRNA
Procedure: A549 cells (human lung cancer cell line; ATCC No. CCL-185), SK-MeI-5 cells (human melanoma cell line; ATCC No. HTB-70), MCF-7 cells (human adenocarcinoma cell line; ATCC No. HTB-22), HCT-116 cells (colorectal carcinoma; ATCC CCL-247) and HCT-116 p53 null cells (derived from ATCC No. CCL-247; Bunz et al., Science 282:1497-1501, 1998) were cultured in RPMI 1640 medium with 10% v/v heat-inactivated fetal calf serum (FCS). Cells were seeded at a density of 5×10^4 cells/cm^2 in multi-well tissue culture plates. […] The cellular DNA content was measured using a SYBR Green I-based fluorometric assay at 24, 48, 72 and 96 hours after transfection (120 hours for the MCF-7 cells), as follows. […]
The following day, cell lysates were mixed thoroughly, and DNA fluorescence was measured with a Wallac Victor^2 plate reader (Turku, Finland) set at an excitation frequency of 485 nm and measuring emission at 535 nm.
siRNA-mediated RNAi was also determined on a panel of different cell lines. A549, SK-MeI-5, wt HCT-116, HCT-116−/−p53 and MCF-7 cells were transfected with 10 nM siRNAs targeting YBX-1 and growth inhibition determined as described above. […]

SEQ ID NO: 4982: siRNA targeting YBX1 (chain 1 TTTGCTGGTAATTGCGTGGAGGACC; chain 2 UUUGCUGGUAAUUGCGUGGAGGACC; chemistry not given here; one strand in two spellings)
growth inhibition, MCF7 cells: ++ (At least 50% inhibition)
